# Laboratory results as given in PubChem BioAssay (NCI).
#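 Following 48 hours of exposure in 96-well plates, responses at five concentrations were used to interpolate endpoints linearly. TGI: concentration producing complete growth inhibition.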
# Experiments:
# Assay in all cases: growth of human tumour cells (NCI), 48 h
# A549 NSCLC = tested on: A549 NSCLC
# ACHN renal = tested on: ACHN renal
# CAKI-1 renal = tested on: CAKI-1 renal
# CCRF-CEM leukemia = tested on: CCRF-CEM leukemia
# COLO 205 colon = tested on: COLO 205 colon
# DLD-1 colon = tested on: DLD-1 colon
# DMS 114 small cell lung = tested on: DMS 114 small cell lung
# DMS 273 small cell lung = tested on: DMS 273 small cell lung
# EKVX NSCLC = tested on: EKVX NSCLC
# HCC-2998 colon = tested on: HCC-2998 colon
# HCT-116 colon = tested on: HCT-116 colon
# HCT-15 colon = tested on: HCT-15 colon
# HL-60(TB) leukemia = tested on: HL-60(TB) leukemia
# HOP-18 NSCLC = tested on: HOP-18 NSCLC
# HOP-62 NSCLC = tested on: HOP-62 NSCLC
# HOP-92 NSCLC = tested on: HOP-92 NSCLC
# HT29 colon = tested on: HT29 colon
# IGROV1 ovarian = tested on: IGROV1 ovarian
# K-562 leukemia = tested on: K-562 leukemia
# KM12 colon = tested on: KM12 colon
# KM20L2 colon = tested on: KM20L2 colon
# LOX IMVI melanoma = tested on: LOX IMVI melanoma
# LXFL 529 NSCLC = tested on: LXFL 529 NSCLC
# M14 melanoma = tested on: M14 melanoma
# M19-MEL melanoma = tested on: M19-MEL melanoma
# MALME-3M melanoma = tested on: MALME-3M melanoma
# MOLT-4 leukemia = tested on: MOLT-4 leukemia
# NCI-H226 lung = tested on: NCI-H226 lung
# NCI-H23 lung = tested on: NCI-H23 lung
# NCI-H460 lung = tested on: NCI-H460 lung
# NCI-H522 lung = tested on: NCI-H522 lung
# OVCAR-3 ovarian = tested on: OVCAR-3 ovarian
# OVCAR-4 ovarian = tested on: OVCAR-4 ovarian
# OVCAR-5 ovarian = tested on: OVCAR-5 ovarian
# OVCAR-8 ovarian = tested on: OVCAR-8 ovarian
# RPMI-8226 leukemia = tested on: RPMI-8226 leukemia
# RXF 393 renal = tested on: RXF 393 renal
# SF-268 CNS = tested on: SF-268 CNS
# SF-539 CNS = tested on: SF-539 CNS
# SK-MEL-2 melanoma = tested on: SK-MEL-2 melanoma
# SK-MEL-28 melanoma = tested on: SK-MEL-28 melanoma
# SK-MEL-5 melanoma = tested on: SK-MEL-5 melanoma
# SK-OV-3 ovarian = tested on: SK-OV-3 ovarian
# SN12C renal = tested on: SN12C renal
# SNB-19 CNS = tested on: SNB-19 CNS
# SR leukemia = tested on: SR leukemia
# SW-620 colon = tested on: SW-620 colon
# TK-10 renal = tested on: TK-10 renal
# U251 CNS = tested on: U251 CNS
# UACC-62 melanoma = tested on: UACC-62 melanoma
# UO-31 renal = tested on: UO-31 renal
# XF 498 CNS = tested on: XF 498 CNS
# 786-0 renal = tested on: 786-0 renal
# SF-295 CNS = tested on: SF-295 CNS
# SNB-75 CNS = tested on: SNB-75 CNS
# SNB-78 CNS = tested on: SNB-78 CNS
# UACC-257 melanoma = tested on: UACC-257 melanoma
compound,measurement,setting,value
CCC(=C(C#N)C#N)c1cc(OC)c(OC)c(OC)c1,TGI,A549 NSCLC,> 100 µM
same,TGI,ACHN renal,> 100 µM
same,TGI,CAKI-1 renal,> 100 µM
same,TGI,CCRF-CEM leukemia,> 100 µM
same,TGI,COLO 205 colon,> 100 µM
same,TGI,DLD-1 colon,> 100 µM
same,TGI,DMS 114 small cell lung,> 100 µM
same,TGI,DMS 273 small cell lung,> 100 µM
same,TGI,EKVX NSCLC,> 100 µM
same,TGI,HCC-2998 colon,> 100 µM
same,TGI,HCT-116 colon,> 100 µM
same,TGI,HCT-15 colon,> 100 µM
same,TGI,HL-60(TB) leukemia,44.5 µM
same,TGI,HOP-18 NSCLC,> 100 µM
same,TGI,HOP-62 NSCLC,> 100 µM
same,TGI,HOP-92 NSCLC,> 100 µM
same,TGI,HT29 colon,> 100 µM
same,TGI,IGROV1 ovarian,> 100 µM
same,TGI,K-562 leukemia,> 100 µM
same,TGI,KM12 colon,> 100 µM
same,TGI,KM20L2 colon,> 100 µM
same,TGI,LOX IMVI melanoma,> 100 µM
same,TGI,LXFL 529 NSCLC,> 100 µM
same,TGI,M14 melanoma,> 100 µM
same,TGI,M19-MEL melanoma,> 100 µM
same,TGI,MALME-3M melanoma,> 100 µM
same,TGI,MOLT-4 leukemia,> 100 µM
same,TGI,NCI-H226 lung,> 100 µM
same,TGI,NCI-H23 lung,> 100 µM
same,TGI,NCI-H460 lung,> 100 µM
same,TGI,NCI-H522 lung,> 100 µM
same,TGI,OVCAR-3 ovarian,> 100 µM
same,TGI,OVCAR-4 ovarian,> 100 µM
same,TGI,OVCAR-5 ovarian,> 100 µM
same,TGI,OVCAR-8 ovarian,> 100 µM
same,TGI,RPMI-8226 leukemia,35.6 µM
same,TGI,RXF 393 renal,> 100 µM
same,TGI,SF-268 CNS,> 100 µM
same,TGI,SF-539 CNS,> 100 µM
same,TGI,SK-MEL-2 melanoma,> 100 µM
same,TGI,SK-MEL-28 melanoma,> 100 µM
same,TGI,SK-MEL-5 melanoma,> 100 µM
same,TGI,SK-OV-3 ovarian,> 100 µM
same,TGI,SN12C renal,> 100 µM
same,TGI,SNB-19 CNS,> 100 µM
same,TGI,SR leukemia,> 100 µM
same,TGI,SW-620 colon,> 100 µM
same,TGI,TK-10 renal,> 100 µM
same,TGI,U251 CNS,> 100 µM
same,TGI,UACC-62 melanoma,> 100 µM
same,TGI,UO-31 renal,> 100 µM
same,TGI,XF 498 CNS,> 100 µM
O=C(CC1(O)C(=O)Nc2c(Cl)cc(Cl)cc21)c1ccco1 (stereo not drawn),TGI,786-0 renal,> 100 µM
same,TGI,A549 NSCLC,> 100 µM
same,TGI,ACHN renal,> 100 µM
same,TGI,CAKI-1 renal,> 100 µM
same,TGI,CCRF-CEM leukemia,68.4 µM
same,TGI,COLO 205 colon,> 100 µM
same,TGI,DLD-1 colon,> 100 µM
same,TGI,DMS 114 small cell lung,60 µM
same,TGI,DMS 273 small cell lung,> 100 µM
same,TGI,EKVX NSCLC,> 100 µM
same,TGI,HCC-2998 colon,> 100 µM
same,TGI,HCT-15 colon,> 100 µM
same,TGI,HL-60(TB) leukemia,47.5 µM
same,TGI,HOP-18 NSCLC,> 100 µM
same,TGI,HOP-62 NSCLC,> 100 µM
same,TGI,HOP-92 NSCLC,> 100 µM
same,TGI,HT29 colon,> 100 µM
same,TGI,K-562 leukemia,> 100 µM
same,TGI,KM12 colon,> 100 µM
same,TGI,KM20L2 colon,> 100 µM
same,TGI,LOX IMVI melanoma,> 100 µM
same,TGI,LXFL 529 NSCLC,> 100 µM
same,TGI,M14 melanoma,> 100 µM
same,TGI,MALME-3M melanoma,> 100 µM
same,TGI,MOLT-4 leukemia,59.1 µM
same,TGI,NCI-H226 lung,71.4 µM
same,TGI,NCI-H23 lung,> 100 µM
same,TGI,NCI-H460 lung,> 100 µM
same,TGI,NCI-H522 lung,> 100 µM
same,TGI,OVCAR-3 ovarian,57 µM
same,TGI,OVCAR-4 ovarian,40.8 µM
same,TGI,OVCAR-5 ovarian,> 100 µM
same,TGI,OVCAR-8 ovarian,> 100 µM
same,TGI,RPMI-8226 leukemia,60.4 µM
same,TGI,RXF 393 renal,> 100 µM
same,TGI,SF-268 CNS,> 100 µM
same,TGI,SF-295 CNS,> 100 µM
same,TGI,SK-MEL-2 melanoma,> 100 µM
same,TGI,SK-MEL-28 melanoma,> 100 µM
same,TGI,SK-MEL-5 melanoma,> 100 µM
same,TGI,SK-OV-3 ovarian,> 100 µM
same,TGI,SN12C renal,> 100 µM
same,TGI,SNB-19 CNS,> 100 µM
same,TGI,SNB-75 CNS,> 100 µM
same,TGI,SNB-78 CNS,99.5 µM
same,TGI,SW-620 colon,> 100 µM
same,TGI,TK-10 renal,> 100 µM
same,TGI,U251 CNS,> 100 µM
same,TGI,UACC-257 melanoma,> 100 µM
same,TGI,UO-31 renal,> 100 µM
same,TGI,XF 498 CNS,67.8 µM
